Tested on: European D614G strain of SARS-CoV-2 (BavPat1/2020)
Assay type: cell-based

O=C(Nc1ccc([N+](=O)[O-])cc1Cl)c1cc(Cl)ccc1O [niclosamide ethanolamine]
reduction of intracellular viral RNA level compared to non-treated control: 3 fold

From patent US20230147683A1, “TREATMENT” (UNION Therapeutics A/S, priority 2020, published 2023)
